From patent US9107954B2, “Bivalent ligands for the treatment of neurological disorders” (Virginia Commonwealth University, priority 2012, dated 2015)

Key:
[1] = biological target: MOR (Homo sapiens (Human), UniProt P35372); assay: DAMGO-stimulated Ca2+ flux assay in hMOR-CHO cells transfected with Gqi5; assay type: cell-based
[2] = biological target: mu opioid receptor (MOR) (Homo sapiens (Human), UniProt P35372); assay: MOR competitive radioligand binding, [3H]naloxone, hMOR-expressed CHO cells; details: Example 1, read-out: binding affinity to the mu opioid receptor, Ki
Method: MOR/CHO cell culture and membrane homogenate preparation followed literature report^52.
Saturation binding was performed by incubating membranes for 90 minutes at 30° C. with 0.5-15 nM [^3H]naloxone in assay buffer in a 0.5 mL volume. […] The reaction was terminated by rapid filtration through Whatman GF/B glass fiber filters, followed by 3 washes with 3 mL ice-cold Tris buffer. Bound radioactivity will be determined by liquid scintillation spectrophotometry at 45% efficiency for [^3H].
For competition binding assay (agonists or antagonists), Hill plots linear regression analysis and the Cheng-Prusoff equation were applied to determine the IC50 and Ki values. In [^35S]GTPγS binding assays, agonist concentration effect curves were fit by non-linear regression to obtain Emax and EC50 values; antagonist inhibition of agonist-stimulated [^35S]GTPγS binding was analyzed by Hill analysis and AD50 values were corrected to Ki values using the Cheng-Prusoff equation. All analyses were using Prism 4.0.
Herein is reported the characterization of this novel molecular probe in for its binding affinity, Ca^2+ flux functional activity, and HIV-1 inhibition potency.

[3] = biological target: CCR5 (Homo sapiens (Human), UniProt P51681); assay: Calcium mobilization assay in MOLT-4/CCR5 cells, RANTES-stimulated (Example 1); assay type: cell-based; details: CCR5/MOLT-4 cells
Chain of CCR5 (P51681 whole entry): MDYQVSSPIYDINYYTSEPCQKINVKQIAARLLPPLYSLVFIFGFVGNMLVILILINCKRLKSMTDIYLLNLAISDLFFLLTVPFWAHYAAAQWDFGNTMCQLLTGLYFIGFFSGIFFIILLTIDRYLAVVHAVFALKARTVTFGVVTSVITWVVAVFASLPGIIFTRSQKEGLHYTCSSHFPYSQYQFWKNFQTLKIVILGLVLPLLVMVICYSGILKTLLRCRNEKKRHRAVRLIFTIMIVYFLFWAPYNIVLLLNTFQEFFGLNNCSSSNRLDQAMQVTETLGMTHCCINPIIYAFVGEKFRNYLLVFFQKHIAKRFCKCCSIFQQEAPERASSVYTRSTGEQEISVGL
Method: The ligands were first tested with various doses (in the range of 0.1 nM to 1 μM) for possible agonist activity. The protocol was the same for the following antagonism study, except no CCL5 (RANTES) was added. MOLT-4/CCR5 cells were plated in black 96-well plates with transparent bottom (Greinier Bio-one) at 100,000 cells per well in 50:1 HBSS:HEPES assay buffer. They were incubated for 1 hour at 37° C. and 5% CO2 with control buffer or varying concentration of ligand for a total volume of 130 μL per well. Cells were then incubated with 50 μL of Fluo-4-AM loading buffer (40 μL 2 μM Fluo-4 dye, 100 μL 2.5 mM probenacid, in 5 mL assay buffer) for an additional hour. Then 20μL 200 nM RANTES solution in assay buffer or assay buffer alone were added to the wells right before changes in Ca^2+ concentration were monitored by RFU for 90 seconds using a microplate reader (FlexStation3, Molecular Devices). Peak values were obtained using SoftMaxPro software (Molecular Devices) and non-linear regression curves were generated using Prism (GraphPad) to calculate IC50 values.

[4] = tested on: fusion of CCR5-MOR CHO target cells (CD4) with HEK effector cells (HIV-1 gp140); assay type: cell-based
[5] = tested on: R5-tropic HIV-1SF162 in primary human astrocytes; assay: HIV-1SF162 infectivity, Tat luciferase reporter assay in primary human astrocytes; assay type: cell-based
Method: Primary human astrocytes (ScienCell catalog #1901) were cultured in 24-well plates and transfected with the plasmid pBlue3′LTR-luc (NIH AIDS Research and Reference Reagent Program) using Lipofectamine 2000 (Invitrogen) followed by infection with HIV-1. After 18-20 h cells were rinsed twice in 1×PBS then lysed in Cell Culture Lysis Reagent (Promega) and relative Tat protein expression was determined by measuring luciferase activity using the Luciferase Assay System (Promega; catalog # E1500). Light units were measured using a PHERAstar FS plate reader (BMG Labtech).
Primary human astroglial cells were infected by incubation with the neurotropic HIV-1 strain SF162. A concentration of HIV-1 p24 50 pg/10^6 cells was used, and a no virus condition served as a negative control. Viral stocks were quantified by assaying for HIV-1 p24 (Alliance p24 Antigen ELISA Kit; Advanced Bioscience, Kensington, Md.).
HIV-1SF162 infectivity of human astroglia was determined based on the relative amount of Tat protein expressed by the virus using a luciferase-based reporter assay. Reporters under the control of the long terminal repeat (LTR) viral promoter are a robust means of measuring HIV-1 infection, since the LTR is activated by HIV-1 Tat, which is only expressed by infected cells.
As the bivalent ligand 1 has been designed as a molecular probe to study the underlying mechanisms of opioid-enhanced NeuroAIDS by targeting the MOR-CCR5 heterodimerization, a luciferase-based HIV-1SF162) infection assay measuring the relative transactivator of transcription (Tat) protein expression in human astrocytes was performed (FIG. 15). Tat is encoded by HIV-1 and is the first protein to be produced after HIV-1 infection. Thus, Tat expression level is directly proportioned to the extent of HIV-1 invasion. Astrocytes were chosen based on the following facts: first, astrocytes express both the MOR and the CCR5. Second, the human blood-brain barrier (BBB) is composed of interacting adjacent cerebral endothelial cells (CECs) and astrocytes, which makes astrocytes a readily accessible target during the course of HIV infection. Thirdly, during NeuroAIDS development astroglia are important cellular sites within the CNS where opioids synergistically potentiate the pathophysiological effects of HIV-1 infection.

[6] = tested on: R5-tropic HIV-1Bal Vpr-GFP in primary astroglial cells; assay: Confocal microscopy of HIV-1Bal Vpr-GFP entry into astroglial cells; assay type: cell-based; details: 100 nM, 18 to 20 h
Method: For direct visualization of viral entry, fluorescent HIV-1 particles were generated by co-transfection of a vector containing a full-length R5-tropic HIV-1 provirus (NIH AIDS Research & Reference Reagent Program, Division of AIDS, NIAID, NIH: pWT/BaL (catalog #11414) and Vpr-GFP into HEK-293T cells as described in [9]. Primary astroglial cells were infected with the HIV-1 Vpr-GFP particles in the absence or presence of 100 nM bivalent ligand for 18 to 20 h at 37° C., washed in PBS, fixed with 4% paraformaldehyde, and counterstained with DAPI. Cells were imaged using a Zeiss LSM 700 laser scanning confocal microscope equipped with a 63×(1.42 numerical aperture [NA]) objective, using 488-nm laser excitation with dichroic beam-splitter set at 492 nm to optimize GFP detection.

Structure (SMILES): Cc1nnc(C(C)C)n1C1CC2CCC(C1)N2CC[C@H](NC(=O)C1CCC(F)(F)CC1)c1ccc(NC(=O)COCC(=O)NCCCCCCCNC(=O)COCC(=O)N[C@@H]2CC[C@@]3(O)[C@H]4Cc5ccc(O)c6c5[C@@]3(CCN4CC3CC3)[C@H]2O6)cc1 (stereo partly drawn) [bivalent ligand 1]
- fold reduction of potency to antagonize DAMGO-induced Ca2+ flux compared to naltrexone [1]: less than 5 fold
- IC50 ([1]; DAMGO stimulated, hMOR-CHO Gqi5, read-out: Ca2+ inhibition IC50 ± SEM): 40 ± 4.8 nM
- agonism in Ca2+ mobilization assay ([1]; hMOR-CHO Gqi5, data not shown): No agonism
- Ki [2]: 51.8 ± 7.9 nM
- IC50 ([3]; RANTES, read-out: calcium flux inhibition IC50): 231 ± 88 nM
- agonism in calcium mobilization assay ([3]; no RANTES added): no agonism
- effect on cell fusion ([4]; 1 at 3000 nM, 2 at 10000 nM, maraviroc at 100 nM): significantly lowered cell fusion
- amplification of cell fusion inhibition when morphine present ([4]; morphine 300 nM): 2 fold
- potency in HIV-1 entry inhibition relative to the mixture of maraviroc and naltrexone [5]: two times
- decrease in Tat expression compared to maraviroc alone or the combination of maraviroc and naltrexone ([5]; 100 nM): two-fold
- fold decrease in Tat expression compared to MVC with NTX plus morphine, bivalent compound plus morphine ([5]; 100 nM + morphine 500 nM): 4.4 fold
- fold decrease in Tat expression compared to R5 plus MVC, bivalent compound plus morphine ([5]; 100 nM + morphine 500 nM): 2.9 fold
- fold decrease in Tat expression compared to R5 HIV-1 alone ([5]; 100 nM, 18-20 h post-infection, no morphine): 4.4 fold
- fold decrease in virus entry compared to maraviroc with morphine ([5]; 100 nM, morphine 500 nM, Example 3): 7 fold
- fold decrease in virus entry compared to maraviroc alone ([5]; 100 nM, without morphine, Example 3): 3.3 fold
- fold decrease in Tat expression compared to R5 plus MVC ([5]; bivalent ligand 100 nM, no morphine): 2.0 fold
- effect of morphine stimulation on potency ([5]; morphine 500 nM): no effect
- viral entry by confocal microscopy [6]: abolished viral entry
